From US9675070B2 (BAYER CROPSCIENCE AG, priority 2013, dated 2017)

What was measured:
[1] = tested on: adult cat fleas (Ctenocephalides felis); assay: Ctenocephalides felis oral test (CTECFE); format: in vivo; conditions: application rate 100 ppm in citrated cattle blood; after 2 days
Procedure: Ctenocephalides felis-Oral Test ([…]) Solvent: dimethyl sulphoxide To produce a suitable preparation of active compound, 10 mg of active compound are mixed with 0.5 ml of dimethyl sulphoxide. Dilution with citrated cattle blood gives the desired concentration. About 20 unfed adult cat fleas (Ctenocephalides felis) are placed into a chamber which is closed at the top and bottom with gauze. A metal cylinder whose bottom end is closed with a parafilm is placed onto the chamber. The cylinder contains the blood/active ingredient preparation, which can be imbibed by the fleas through the parafilm membrane. After 2 days, the kill in % is determined. 100% means that all of the fleas have been killed; 0% means that none of the fleas have been killed.

[2] = tested on: larvae of the mustard beetle (Phaedon cochleariae); assay: Phaedon cochleariae spray test (PHAECO); format: in vivo; conditions: application rate 100 g/ha; Chinese cabbage leaf discs; after 7 days
Procedure: Phaedon cochleariae—Spray Test (PHAECO)
(§1) Solvents: 78.0 parts by weight of acetone
(§2) • 1.5 parts by weight of dimethylformamide Emulsifier: alkylaryl polyglycol ether
(§3) To produce a suitable preparation of active compound, 1 part by weight of active compound is dissolved using the stated parts by weight of solvent and made up with water comprising an emulsifier concentration of 1000 ppm until the desired concentration is reached. To produce further test concentrations, the preparation is diluted with emulsifier-containing water.
After 7 days, the efficacy in % is determined. 100% means that all of the beetle larvae have been killed; 0% means that none of the beetle larvae have been killed.

[3] = tested on: L1 larvae of the Australian sheep blowfly (Lucilia cuprina); assay: Lucilia cuprina test (LUCICU); format: in vivo; conditions: application rate 100 ppm; minced horsemeat; after 2 days
Procedure: Lucilia cuprina Test (LUCICU) Solvent: dimethyl sulphoxide To produce a suitable preparation of active compound, 10 mg of active compound are mixed with 0.5 ml of dimethyl sulphoxide, and the concentrate is diluted with water to the desired concentration. About 20 L1 larvae of the Australian sheep blowfly (Lucilia cuprina) are transferred into a test vessel containing minced horsemeat and the active compound preparation of the desired concentration. After 2 days, the kill in % is determined. 100% means that all of the larvae have been killed; 0% means that none of the larvae have been killed.

[4] = tested on: Tick nymphs (Amblyomma hebraeum); assay: Amblyomma hebaraeum test (AMBYHE), tick nymph immersion; format: in vivo; conditions: application rate 100 ppm; immersion one minute; after 42 days
Procedure: Amblyomma hebaraeum Test (AMBYHE) Solvent: dimethyl sulphoxide To produce a suitable preparation of active compound, 10 mg of active compound are mixed with 0.5 ml of dimethyl sulphoxide, and the concentrate is diluted with water to the desired concentration. Tick nymphs (Amblyomma hebraeum) are placed into perforated plastic beakers and immersed in the desired concentration for one minute. The ticks are transferred on filter paper into a Petri dish and stored in a climate-controlled cabinet. After 42 days, the kill in % is determined. 100% means that all of the ticks have been killed; 0% means that none of the ticks have been killed.

[5] = tested on: adult houseflies (Musca domestica); assay: Musca domestica test (MUSCDO); format: in vivo; conditions: application rate 100 ppm; after 2 days
Procedure: Musca domestica Test (MUSCDO) Solvents: dimethyl sulphoxide To produce a suitable preparation of active compound, 10 mg of active compound are mixed with 0.5 ml of dimethyl sulphoxide, and the concentrate is diluted with water to the desired concentration. Vessels containing a sponge treated with sugar solution and the active compound preparation of the desired concentration are populated with 10 adult houseflies (Musca domestica). After 2 days, the kill in % is determined. 100% means that all of the flies have been killed; 0% means that none of the flies have been killed.

[6] = tested on: caterpillars of the armyworm (Spodoptera frugiperda); assay: Spodoptera frugiperda spray test (SPODFR); format: in vivo; conditions: application rate 100 g/ha; maize leaf discs; after 7 days
Procedure: Spodoptera frugiperda—Spray Test (SPODFR)
as §1, §2, §3
Leaf discs of maize (Zea mays) are sprayed with an active compound preparation of the desired concentration and, after drying, populated with caterpillars of the armyworm (Spodoptera frugiperda).
After 7 days, the efficacy in % is determined. 100% means that all of the caterpillars have been killed; 0% means that none of the caterpillars have been killed.

[7] = tested on: southern root-knot nematode (Meloidogyne incognita); assay: Meloidogyne incognita test (MELGIN); format: in vivo; conditions: application rate 20 ppm; lettuce; after 14 days
Procedure: Meloidogyne incognita Test (MELGIN) Solvent: 125.0 parts by weight of acetone To prepare a suitable active compound preparation, 1 part by weight of active compound is mixed with the stated amount of solvent and the concentrate is diluted with water to the desired concentration. Vessels are filled with sand, active compound solution, an egg/larvae suspension of the southern root-knot nematode (Meloidogyne incognita) and lettuce seeds. The lettuce seeds germinate and the plants develop. On the roots, galls are formed. After 14 days, the nematicidal efficacy in % is determined by the formation of galls. 100% means that no galls have been found; 0% means that the number of galls on the treated plants corresponds to the untreated control.

[8] = tested on: cattle ticks (Boophilus microplus) Parkhurst strain, SP-resistant; assay: Boophilus microplus dip test (BOOPMI Dip); format: in vivo; conditions: application rate 100 ppm, assessed after 7 days
Procedure: Boophilus microplus—Dip Test (BOOPMI Dip)
Test animals: cattle ticks (Boophilus microplus) Parkhurst strain, SP-resistant
(§4) Solvent: dimethyl sulphoxide
10 mg of active compound are dissolved in 0.5 ml of dimethyl sulphoxide. To prepare a suitable formulation, the active compound solution is diluted with water to the concentration desired in each case.
This active compound preparation is pipetted into tubes. 8-10 adult engorged female cattle ticks (Boophilus microplus) are transferred into a further tube with holes. The tube is immersed into the active compound formulation, and all ticks are completely wetted. After the liquid has run out, the ticks are transferred on filter discs into plastic dishes and stored in a climate-controlled room.
(§5) The activity is assessed after 7 days by laying of fertile eggs. Eggs whose fertility is not visible from the outside are stored in a climate-controlled cabinet until the larvae hatch after about 42 days. An efficacy of 100% means that none of the ticks has laid any fertile eggs; 0% means that all eggs are fertile.

[9] = tested on: greenhouse red spider mite (Tetranychus urticae), OP-resistant; assay: Tetranychus urticae spray test, OP-resistant (TETRUR); format: in vivo; conditions: application rate 100 g/ha; bean leaf discs; after 6 days
Procedure: Tetranychus urticae—Spray Test, OP-Resistant (TETRUR)
as §1, §2, §3
Discs of bean leaves (Phaseolus vulgaris) which are infested by all stages of the greenhouse red spider mite (Tetranychus urticae) are sprayed with an active compound preparation of the desired concentration.
After 6 days, the efficacy in % is determined. 100% means that all of the spider mites have been killed; 0% means that none of the spider mites have been killed.

[10] = log P determination by HPLC on reversed-phase column (C18), EEC Directive 79/831 Annex V.A8; format: physicochemical; conditions: method a): Agilent 1100 LC, Zorbax Eclipse Plus C18, acetonitrile/water with formic acid, gradient 10-95% in 4.25 min, 55° C.
Procedure: Agilent 1100 LC system; 50*4.6 Zorbax Eclipse Plus C18 1.8 micron; mobile phase A: acetonitrile (0.1% formic acid); mobile phase B: water (0.09% formic acid); linear gradient from 10% acetonitrile to 95% acetonitrile in 4.25 min, then 95% acetonitrile for a further 1.25 min; oven temperature 55° C.; flow rate: 2.0 ml/min. Mass detection is carried out via an Agilend MSD system.
^a)Unless indicated otherwise, the following method was used to determine the log P values and masses: The determination of the given log P values was carried out in accordance with EEC Directive 79/831 Annex V.A8 by HPLC (High Performance Liquid Chromatography) on a reversed-phase column (C18). Agilent 1100 LC system; 50*4.6 Zorbax Eclipse Plus C18 1.8 micron; mobile phase A: acetonitrile (0.1% formic acid); mobile phase B: water (0.09% formic acid); linear gradient from 10% acetonitrile to 95% acetonitrile in 4.25 min, then 95% acetonitrile for a further 1.25 min; oven temperature 55° C.; flow rate: 2.0 ml/min. Mass detection is carried out via an Agilend MSD system. ^b)Note for the alternative method for determining log P values and masses: The stated log P values were determined in accordance with EEC Directive 79/831 Annex V.A8 by HPLC (High Performance Liquid Chromatography) using a reversed-phase column (C18). Waters ACQUITY UPLC-MS system; 2.1*50 mm Zorbax Eclipse Plus C18 1.8 μm 600 bar; injection volume: 0.5 ul about 1000 ppm; mobile phase A: acetonitrile (0.1% formic acid); mobile phase B: water (0.085% formic acid); linear gradient from 10% acetonitrile to 95% acetonitrile in 1.5 min, then 95% acetonitrile for a further 0.5 min; oven temperature 60° C.; flow rate: 1.0 ml/min. Mass detection is carried out via a Waters SQD system.

[11] = tested on: engorged adult female cattle ticks (Boophilus microplus); assay: Boophilus microplus injection test (BOOPMI Inj); format: in vivo; conditions: application rate 20 μg/animal; injection into abdomen; assessed after 7 days
Procedure: Boophilus microplus Injection Test (BOOPMI Inj)
as §4
To produce a suitable preparation of active compound, 10 mg of active compound are mixed with 0.5 ml of solvent, and the concentrate is diluted with solvent to the desired concentration.
1 μl of the active compound solution is injected into the abdomen of 5 engorged adult female cattle ticks (Boophilus microplus). The animals are transferred into dishes and kept in a climate-controlled room.
as §5

[12] = tested on: green peach aphid (Myzus persicae); assay: Myzus persicae spray test (MYZUPE); format: in vivo; conditions: application rate 100 g/ha; Chinese cabbage leaf discs; after 6 days
Procedure: Myzus persicae—spray test (MYZUPE)
Solvents: 78 parts by weight of acetone
as §2, §3
Discs of Chinese cabbage leaves (Brassica pekinensis) infested by all stages of the green peach aphid (Myzus persicae) are sprayed with an active compound preparation of the desired concentration.
After 6 days, the efficacy in % is determined. 100% here means that all of the aphids have been killed; 0% means that no aphids have been killed.

Row | Compound | kill in % [1] [%] | efficacy in % [2] [%] | kill in % [3] [%] | kill in % [4] [%] | kill in % [5] [%] | efficacy in % [6] [%] | nematicidal efficacy in % (formation of galls) [7] [%] | efficacy (no laying of fertile eggs) [8] [%] | efficacy in % [9] [%] | chromatographic logP [10] | efficacy (no laying of fertile eggs) [11] [%] | efficacy in % [12] [%]
1 | CCC(=O)NCc1cccc(-c2cnn(-c3c(C(F)(F)F)c(C(F)(F)C(F)(F)F)nn3C)c2)c1 [Ic-1, N-{3-[2′-methyl-5′-(pentafluoroethyl)-4′-(trifluoromethyl)-2′H-1,3′-bipyrazol-4-yl]benzyl}propanamide] | 100 | 100 | 100 | 100 | 100 | 100 | 90 | 100 | 90 | 3.59 | 100 | –
2 | Cn1nc(C(F)(F)C(F)(F)F)c(C(F)(F)F)c1-n1cc(-c2cccc(CNC(=O)OC(C)(C)C)c2)cn1 [Ic-18, tert-butyl {3-[2′-methyl-5′-(pentafluoroethyl)-4′-(trifluoromethyl)-2′H-1,3′-bipyrazol-4-yl]benzyl}carbamate] | – | – | – | – | – | – | – | – | – | 4.74 | 100 | 100
3 | Cn1nc(C(F)(F)C(F)(F)F)c(C(F)(F)F)c1-n1cc(-c2ccc(F)c(CNC(=O)Cc3cccs3)c2)cn1 [Ic-7] | 90 | 100 | 100 | – | – | 83 | 90 | – | 100 | – | 100 | –
4 | CCC(=O)NC(C)c1cccc(-c2cnn(-c3c(C(F)(F)F)c(C(F)(F)C(F)(F)F)nn3C)c2)c1 (stereo not shown) [Ic-33] | – | 100 | – | – | – | – | – | – | 100 | – | – | 90
5 | CC(=O)NCc1cncc(-c2cnn(-c3c(C(F)(F)F)c(C(F)(F)C(F)(F)F)nn3C)c2)c1 [Ic-8] | – | 100 | – | – | – | – | – | – | 90 | – | – | 90
6 | Cn1nc(C(F)(F)C(F)(F)F)c(C(F)(F)F)c1-n1cc(-c2ccc(F)c(CNC(=O)c3ccsc3)c2)cn1 [Ic-23] | – | 100 | 95 | – | – | – | 90 | – | – | – | 100 | –
7 | CCC(=O)NCc1cccc(-c2ncn(-c3c(C(F)(F)F)c(C(F)(F)C(F)(F)F)nn3C)n2)c1 [Ie-1] | – | – | – | – | – | – | 90 | – | – | – | – | –
8 | CC(F)C(=O)NCc1cc(-c2cnn(-c3c(C(F)(F)F)c(C(F)(F)C(F)(F)F)nn3C)c2)ccc1F (racemic) [Ic-22] | – | 100 | – | – | – | 83 | – | – | 100 | – | – | 90
9 | CCC(=O)NCc1cncc(-c2cnn(-c3c(C(F)(F)F)c(C(F)(F)C(F)(F)F)nn3C)c2)c1 [Ic-26] | – | 100 | – | – | – | 83 | – | – | 90 | – | – | 100
